Experimental data from patent US9045398B2, “Sulfonium salt and photo-acid generator” (SAN-APRO LTD., priority 2013, dated 2015).

Key:
[1] = Evaluation of light sensitivity: acid generation ratio after ArF excimer lamp exposure (Rhodamine B base colour reagent); assay type: physicochemical; conditions: 2.5 mM in acetonitrile with 2.5 mM Rhodamine B base; ArF excimer lamp 193 nm, 1.8 mW/cm^2, integrated amount of light 100 mJ/cm^2
Procedure: The photo-acid generators (A-1) to (A-10) of the present invention and the photo-acid generators (H-1) to (H-3) of comparative examples were each diluted with acetonitrile so that their molar concentrations would be 2.5 mM, and then Rhodamine B base (a color reagent for an acid, produced by Sigma-Aldrich) was added to the respective solutions so that the molar concentration would be 2.5 mM, yielding sample solutions.
A sample solution obtained above was put into a quartz cell having an optical path length of 1 cm and then was exposed to light under prescribed conditions using an ArF excimer lamp (center wavelength=193 nm). The absorbance near 556 nm of the respective sample solutions after exposure to light was measured with a spectrophotometer (UV-vis) because the photo-acid generator in a sample solution is decomposed upon exposure to light to generate an acid, which then reacts with Rhodamine B base and, as a result, the absorbance near 556 nm increases. Based on the absorbance at 556 nm, the molar concentration of the acid in the sample solution after exposure to light was determined using a calibration curve (standard substance: p-toluenesulfonic acid). From the acid concentration determined and the initial concentration of the photo-acid generator, the acid generation ratio was determined by the following calculation.
The acid generation ratio determined by the above-mentioned operations was judged according to the following criteria. The results are shown in Table 2. • A: 55% or more • C: less than 55% • (Light Exposure Conditions) • Photolithography machine: ArF excimer lamp (manufactured by USHIO INC.) • Illuminance (measured with a 193 nm head illuminometer): 1.8 mW/cm^2 • Integrated amount of light (measured with a 193 nm head illuminometer): 100 mJ/cm^2 <Evaluation of Solubility> (Measurement of Degree of Solubility)

[2] = Degree of solubility in propylene glycol monomethyl ether acetate (PGMEA); assay type: physicochemical; conditions: for Degree of solubility (%): in propylene glycol monomethyl ether acetate (PGMEA); for Degree of solubility in PGMEA compared with Comparative Examples 1 to 3 (identical anion, different cation): versus Comparative Examples 1 to 3
Procedure: The degrees of solubility in propylene glycol monomethyl ether acetate (PGMEA) of the photo-acid generators (A-1) to (A-10) of the present invention and the photo-acid generators (H-1) to (H-3) of comparative examples were measured.
The degree of solubility determined by the above-mentioned operations was judged according to the following criteria. The results are shown in Table 2. • S: 30% or more • A: 5% or more but less than 30% • B: 1% or more but less than 5% • C: less than 1%

SMILES | Acid generation ratio (%) [1] | Degree of solubility (%) [2] | Degree of solubility in PGMEA compared with Comparative Examples 1 to 3 (identical anion, different cation) [2]
Fc1ccc([S+](c2ccccc2)c2ccccc2)cc1.O=S(=O)([O-])C(F)(F)F [H-3, (4-Fluorophenyl)diphenylsulfonium trifluoromethanesulfonate, reference compound] | C (less than 55%) | B (1% or more but less than 5%) | 
FC(F)(F)c1cccc([S+](c2ccccc2)c2ccccc2)c1 [A-8] | A (55% or more) | S (30% or more) | 
Fc1cccc([S+](c2ccccc2)c2ccccc2)c1 [A-1] | A (55% or more) | A (5% or more but less than 30%) | higher
Fc1cccc([S+](c2ccccc2)c2ccccc2)c1 [A-4] | A (55% or more) | S (30% or more) | 
FC(F)(F)c1cccc([S+](c2ccccc2)c2ccccc2)c1 [A-9] | A (55% or more) | S (30% or more) | 
FC(F)(F)c1cccc([S+](c2ccccc2)c2ccccc2)c1 [A-7] | A (55% or more) | S (30% or more) | 
Cc1ccc([S+](c2ccccc2)c2ccccc2)cc1.O=S(=O)([O-])C(F)(F)F [H-2, (4-Methylphenyl)diphenylsulfonium trifluoromethanesulfonate, reference compound] | C (less than 55%) | B (1% or more but less than 5%) | 
FC(F)(F)c1cccc([S+](c2ccccc2)c2ccccc2)c1 [A-6, diphenyl-3-trifluoromethylphenylsulfonium trifluoromethane sulfonate] | A (55% or more) | A (5% or more but less than 30%) | higher
Fc1cccc([S+](c2ccccc2)c2ccccc2)c1 [A-3] | A (55% or more) | S (30% or more) | 
Fc1cccc([S+](c2ccccc2)c2ccccc2)c1 [A-2] | A (55% or more) | S (30% or more) | 
O=S(=O)([O-])C(F)(F)F.c1ccc([S+](c2ccccc2)c2ccccc2)cc1 [H-1, Triphenylsulfonium trifluoromethanesulfonate, reference compound] | A (55% or more) | C (less than 1%) | 
